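Protocol summary: plate cells (96-well), add compound at 5 concentrations, incubate 48 h, interpolate endpoints linearly. GI50: concentration for 50% inhibition of growth.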 The source made the active and inactive calls. Cut-off read from the data, not from the text of the source: active = GI50 up to about 1.1 µM and inactive = higher.
Legend:
Test in all cases: NCI tumour cell line growth inhibition, 48 h
786-0 = test system: 786-0
A498 = test system: A498
A549 = test system: A549
ACHN = test system: ACHN
BT-549 = test system: BT-549
CAKI-1 = test system: CAKI-1
CCRF-CEM = test system: CCRF-CEM
COLO 205 = test system: COLO 205
DU-145 = test system: DU-145
EKVX = test system: EKVX
HCC 2998 = test system: HCC 2998
HCT-116 = test system: HCT-116
HCT-15 = test system: HCT-15
HL-60 = test system: HL-60
HOP-62 = test system: HOP-62
HOP-92 = test system: HOP-92
HT-29 = test system: HT-29
Hs-578T = test system: Hs-578T
IGROV-1 = test system: IGROV-1
K562 = test system: K562
KM12 = test system: KM12
LOX IMVI = test system: LOX IMVI
M14 = test system: M14
MCF7 = test system: MCF7
MDA-MB-231 = test system: MDA-MB-231
MDA-MB-435 = test system: MDA-MB-435
MDA-N = test system: MDA-N
MOLT-4 = test system: MOLT-4
NCI-H226 = test system: NCI-H226
NCI-H23 = test system: NCI-H23
NCI-H460 = test system: NCI-H460
NCI-H522 = test system: NCI-H522
NCI/ADR-RES = test system: NCI/ADR-RES
OVCAR-3 = test system: OVCAR-3
OVCAR-4 = test system: OVCAR-4
OVCAR-5 = test system: OVCAR-5
OVCAR-8 = test system: OVCAR-8
PC-3 = test system: PC-3
RPMI-8226 = test system: RPMI-8226
RXF 393 = test system: RXF 393
SF-268 = test system: SF-268
SF-295 = test system: SF-295
SF-539 = test system: SF-539
SK-MEL-28 = test system: SK-MEL-28
SK-MEL-2 = test system: SK-MEL-2
SK-MEL-5 = test system: SK-MEL-5
SK-OV-3 = test system: SK-OV-3
SN12C = test system: SN12C
SNB-19 = test system: SNB-19
SR = test system: SR
SW-620 = test system: SW-620
T47D = test system: T47D
TK-10 = test system: TK-10
U-251 = test system: U-251
UACC-257 = test system: UACC-257
UACC-62 = test system: UACC-62
UO-31 = test system: UO-31
Malme-3M = test system: Malme-3M
SNB-75 = test system: SNB-75

With Cc1c(C(=O)O)n2cnnc2c2ccccc12 the GI50 (786-0) was > 100 µM (inactive), the GI50 (A498) was > 100 µM (inactive) and the GI50 (A549) was > 100 µM (inactive). For the same compound, the GI50 (ACHN) was > 100 µM (inactive), the GI50 (BT-549) was > 100 µM (inactive) and the GI50 (CAKI-1) was > 100 µM (inactive). For the same compound, the GI50 (CCRF-CEM) was > 100 µM (inactive), the GI50 (COLO 205) was > 100 µM (inactive) and the GI50 (DU-145) was > 100 µM (inactive). The GI50 (EKVX) was > 100 µM (inactive), the GI50 (HCC 2998) was > 100 µM (inactive) and the GI50 (HCT-116) was > 100 µM (inactive). For the same compound, the GI50 (HCT-15) was greater than 100 µM, the GI50 (HL-60) was > 100 µM (inactive) and the GI50 (HOP-62) was > 100 µM (inactive). The GI50 (HOP-92) was > 100 µM (inactive), the GI50 (HT-29) was > 100 µM (inactive) and the GI50 (Hs-578T) was > 100 µM (inactive). For the same compound, the GI50 (IGROV-1) was > 100 µM (inactive), the GI50 (K562) was > 100 µM (inactive) and the GI50 (KM12) was > 100 µM (inactive). For the same compound, the GI50 (LOX IMVI) was > 100 µM (inactive), the GI50 (M14) was > 100 µM (inactive) and the GI50 (MCF7) was > 100 µM (inactive). For the same compound, the GI50 (MDA-MB-231) was > 100 µM (inactive), the GI50 (MDA-MB-435) was > 100 µM (inactive) and the GI50 (MDA-N) was > 100 µM (inactive). The GI50 (MOLT-4) was > 100 µM (inactive), the GI50 (NCI-H226) was > 100 µM (inactive) and the GI50 (NCI-H23) was > 100 µM (inactive). The GI50 (NCI-H460) was > 100 µM (inactive), the GI50 (NCI-H522) was > 100 µM (inactive) and the GI50 (NCI/ADR-RES) was > 100 µM (inactive). For the same compound, the GI50 (OVCAR-3) was > 100 µM (inactive), the GI50 (OVCAR-4) was > 100 µM (inactive) and the GI50 (OVCAR-5) was > 100 µM (inactive). The GI50 (OVCAR-8) was > 100 µM (inactive), the GI50 (PC-3) was > 100 µM (inactive) and the GI50 (RPMI-8226) was > 100 µM (inactive). The GI50 (RXF 393) was > 100 µM (inactive), the GI50 (SF-268) was > 100 µM (inactive) and the GI50 (SF-295) was > 100 µM (inactive). For the same compound, the GI50 (SF-539) was > 100 µM (inactive), the GI50 (SK-MEL-28) was > 100 µM (inactive) and the GI50 (SK-MEL-2) was > 100 µM (inactive). For the same compound, the GI50 (SK-MEL-5) was > 100 µM (inactive), the GI50 (SK-OV-3) was > 100 µM (inactive) and the GI50 (SN12C) was > 100 µM (inactive). The GI50 (SNB-19) was > 100 µM (inactive), the GI50 (SR) was > 100 µM (inactive) and the GI50 (SW-620) was > 100 µM (inactive). The GI50 (T47D) was > 100 µM (inactive), the GI50 (TK-10) was > 100 µM (inactive) and the GI50 (U-251) was > 100 µM (inactive). The GI50 (UACC-257) was > 100 µM (inactive), the GI50 (UACC-62) was > 100 µM (inactive) and the GI50 (UO-31) was > 100 µM (inactive).
Cc1nc(-c2ccccc2)c(C)n2c1nc1ccccc12 was tested, and the GI50 (786-0) was 29 µM (inactive), the GI50 (A498) was 27.2 µM (inactive) and the GI50 (A549) was 34.2 µM (inactive). For the same compound, the GI50 (BT-549) was 23 µM (inactive), the GI50 (CAKI-1) was 34.7 µM (inactive) and the GI50 (CCRF-CEM) was 30.7 µM (inactive). For the same compound, the GI50 (COLO 205) was 31.3 µM (inactive), the GI50 (DU-145) was 29.9 µM (inactive) and the GI50 (EKVX) was 37.2 µM (inactive). For the same compound, the GI50 (HCT-116) was 31.5 µM (inactive), the GI50 (HCT-15) was 24.2 µM and the GI50 (HL-60) was 16.5 µM (inactive). For the same compound, the GI50 (HOP-62) was 32.4 µM (inactive), the GI50 (HOP-92) was 19 µM (inactive) and the GI50 (HT-29) was 20.8 µM (inactive). The GI50 (Hs-578T) was 40 µM (inactive), the GI50 (IGROV-1) was 30.4 µM (inactive) and the GI50 (K562) was 35.3 µM (inactive). The GI50 (KM12) was 36.8 µM (inactive), the GI50 (LOX IMVI) was 30.3 µM (inactive) and the GI50 (M14) was 20.3 µM (inactive). For the same compound, the GI50 (MCF7) was 24 µM (inactive), the GI50 (MDA-MB-231) was 31.9 µM (inactive) and the GI50 (MDA-MB-435) was 24.4 µM (inactive). For the same compound, the GI50 (MDA-N) was 29.9 µM (inactive), the GI50 (MOLT-4) was 27.5 µM (inactive) and the GI50 (Malme-3M) was 31.4 µM (inactive). For the same compound, the GI50 (NCI-H226) was 40.5 µM (inactive), the GI50 (NCI-H23) was 15.4 µM (inactive) and the GI50 (NCI-H460) was 23.8 µM (inactive). For the same compound, the GI50 (NCI/ADR-RES) was 23.4 µM (inactive), the GI50 (OVCAR-3) was 24.6 µM (inactive) and the GI50 (OVCAR-4) was 17.2 µM (inactive). For the same compound, the GI50 (OVCAR-5) was 33.2 µM (inactive), the GI50 (OVCAR-8) was 25.9 µM (inactive) and the GI50 (PC-3) was 29.9 µM (inactive). The GI50 (RPMI-8226) was 14.2 µM (inactive), the GI50 (RXF 393) was 25.1 µM (inactive) and the GI50 (SF-268) was 22.1 µM (inactive). For the same compound, the GI50 (SF-295) was 37.6 µM (inactive), the GI50 (SF-539) was 35.6 µM (inactive) and the GI50 (SK-MEL-28) was 39.4 µM (inactive). The GI50 (SK-MEL-2) was 25.9 µM (inactive), the GI50 (SK-OV-3) was 20.1 µM (inactive) and the GI50 (SN12C) was 42.9 µM (inactive). For the same compound, the GI50 (SNB-19) was 35.6 µM (inactive), the GI50 (SNB-75) was 26.7 µM (inactive) and the GI50 (SR) was 19.1 µM (inactive). For the same compound, the GI50 (SW-620) was 33 µM (inactive), the GI50 (T47D) was 12.6 µM (inactive) and the GI50 (TK-10) was 29.4 µM (inactive). The GI50 (U-251) was 30.1 µM (inactive), the GI50 (UACC-257) was 38.1 µM (inactive) and the GI50 (UACC-62) was 19.3 µM (inactive). For the same compound, the GI50 (UO-31) was 14.7 µM (inactive).
